Data reported in US9120812B2, “Pyrimidooxazocine derivatives as mTOR-inhibitors” (SANOFI, priority 2012, dated 2015).

What was measured:
PI3Kα (p110α/p85α) = PI3Kα (p110α/p85α) (Homo sapiens (Human), UniProt P42336); test: PI3Kα enzymatic test by measuring the consumption of ATP; type: biochemical
How it was run: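 p110α/p85α (1.7 μg/ml) with 50 μM PIP2 and 2 μM ATP in pH 7.5 Tris buffer with EGTA, MgCl2, Chaps, DTT; reaction 90 min. Remaining ATP measured by luciferin/luciferase luminescence; IC50 from threefold serial dilutions spanning at least 10 000-fold.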

[1] = biological target: mTOR (human recombinant aa mTOR 1360-2549) (Homo sapiens (Human), UniProt P42345); test: mTOR enzymatic test by TR-FRET (phosphorylation of GFP-4EBP1); type: biochemical
Sequence of mTOR (human recombinant aa mTOR 1360-2549) (P42345 1360-2549): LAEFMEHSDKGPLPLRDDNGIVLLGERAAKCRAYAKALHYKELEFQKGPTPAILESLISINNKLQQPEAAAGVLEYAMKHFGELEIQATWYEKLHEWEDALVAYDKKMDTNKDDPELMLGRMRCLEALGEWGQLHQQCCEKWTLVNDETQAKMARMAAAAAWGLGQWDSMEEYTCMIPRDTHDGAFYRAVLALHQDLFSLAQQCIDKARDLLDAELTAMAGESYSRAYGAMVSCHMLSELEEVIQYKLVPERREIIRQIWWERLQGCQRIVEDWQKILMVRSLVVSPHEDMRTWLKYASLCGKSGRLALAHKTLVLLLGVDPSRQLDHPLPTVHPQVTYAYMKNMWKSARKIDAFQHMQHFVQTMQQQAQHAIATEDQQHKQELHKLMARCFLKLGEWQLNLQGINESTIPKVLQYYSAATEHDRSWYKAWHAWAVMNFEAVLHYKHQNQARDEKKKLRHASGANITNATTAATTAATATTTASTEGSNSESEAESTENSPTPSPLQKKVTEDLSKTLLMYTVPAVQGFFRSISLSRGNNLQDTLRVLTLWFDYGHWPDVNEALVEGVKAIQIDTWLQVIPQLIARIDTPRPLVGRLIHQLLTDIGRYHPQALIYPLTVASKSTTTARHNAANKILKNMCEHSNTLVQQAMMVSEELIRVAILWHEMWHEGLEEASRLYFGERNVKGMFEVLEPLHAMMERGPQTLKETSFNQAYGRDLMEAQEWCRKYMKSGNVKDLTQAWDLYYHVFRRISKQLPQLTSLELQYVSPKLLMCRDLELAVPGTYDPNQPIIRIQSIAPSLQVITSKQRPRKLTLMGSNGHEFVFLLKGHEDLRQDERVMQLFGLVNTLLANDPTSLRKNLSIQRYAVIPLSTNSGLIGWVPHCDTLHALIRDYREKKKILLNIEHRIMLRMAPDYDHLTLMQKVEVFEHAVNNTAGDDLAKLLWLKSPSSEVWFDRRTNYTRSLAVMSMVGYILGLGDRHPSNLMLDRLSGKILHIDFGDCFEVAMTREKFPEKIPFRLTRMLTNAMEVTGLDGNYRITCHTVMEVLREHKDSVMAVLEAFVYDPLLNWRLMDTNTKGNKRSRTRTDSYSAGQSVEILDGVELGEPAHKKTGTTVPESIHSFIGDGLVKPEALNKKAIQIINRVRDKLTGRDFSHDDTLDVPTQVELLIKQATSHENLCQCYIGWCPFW
How it was run: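 TR-FRET detection of GFP-4EBP1 phosphorylation by a terbium-labelled anti-phospho-Thr46 antibody. Kinase reaction ran 30 min at room temperature, was quenched with EDTA (10 mM final) plus Tb-antibody (2 nM final) and left 60 min. Emission at 520 and 490 nm after 340 nm excitation, reported as the 520/490 ratio.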

U87MG tumour cells = test: Test of in vitro proliferation of U87MG tumour cells; type: cell-based; settings: Homo sapiens, U-87 MG, 72 h, U87MG cells, 72 hours; read-out: U87 Cell Proliferation IC50
Protocol: Model 4: Test of in vitro Proliferation of U87MG Tumour Cells.
The cell growth is determined with the reagent CellTiter 96 AQueous One Solution Cell Proliferation Assay from Promega (Cat. No. G3581).

Akt-pS473 in U87MG cells = settings: Homo sapiens, U-87 MG, read-out: U87 Akt-pS473 % Inhibition or IC50, nM (IC50), U87MG cells

Sequence of PI3Kα (p110α/p85α) (P42336 whole entry): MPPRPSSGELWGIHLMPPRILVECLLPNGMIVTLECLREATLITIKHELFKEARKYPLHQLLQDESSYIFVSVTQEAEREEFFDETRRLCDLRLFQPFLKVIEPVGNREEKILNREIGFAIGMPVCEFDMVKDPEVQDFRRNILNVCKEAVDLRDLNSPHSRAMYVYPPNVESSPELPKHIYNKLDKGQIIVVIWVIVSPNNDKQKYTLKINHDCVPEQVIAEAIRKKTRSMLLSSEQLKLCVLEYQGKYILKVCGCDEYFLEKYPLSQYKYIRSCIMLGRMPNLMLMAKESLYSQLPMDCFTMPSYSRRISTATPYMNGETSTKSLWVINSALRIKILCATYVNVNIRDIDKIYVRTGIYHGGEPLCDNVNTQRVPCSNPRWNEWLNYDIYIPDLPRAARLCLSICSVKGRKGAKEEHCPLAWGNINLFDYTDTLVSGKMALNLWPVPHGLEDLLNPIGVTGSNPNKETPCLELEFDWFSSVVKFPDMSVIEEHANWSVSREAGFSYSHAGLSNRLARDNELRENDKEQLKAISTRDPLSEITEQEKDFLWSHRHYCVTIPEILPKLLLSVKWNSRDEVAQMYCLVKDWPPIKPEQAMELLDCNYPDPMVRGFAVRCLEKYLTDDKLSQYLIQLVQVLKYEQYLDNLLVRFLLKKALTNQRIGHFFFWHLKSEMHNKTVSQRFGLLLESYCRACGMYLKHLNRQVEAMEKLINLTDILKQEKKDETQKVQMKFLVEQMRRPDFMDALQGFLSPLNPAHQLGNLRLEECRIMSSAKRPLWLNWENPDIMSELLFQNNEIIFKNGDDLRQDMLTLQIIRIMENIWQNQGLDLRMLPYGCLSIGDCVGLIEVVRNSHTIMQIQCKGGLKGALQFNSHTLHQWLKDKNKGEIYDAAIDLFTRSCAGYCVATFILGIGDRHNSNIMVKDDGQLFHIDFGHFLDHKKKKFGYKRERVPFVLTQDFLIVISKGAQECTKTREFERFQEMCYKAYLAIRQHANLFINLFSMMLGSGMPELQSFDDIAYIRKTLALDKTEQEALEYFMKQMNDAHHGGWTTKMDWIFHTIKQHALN
Sequence of PI3Kα (p110α/p85α) (P27986 whole entry partner): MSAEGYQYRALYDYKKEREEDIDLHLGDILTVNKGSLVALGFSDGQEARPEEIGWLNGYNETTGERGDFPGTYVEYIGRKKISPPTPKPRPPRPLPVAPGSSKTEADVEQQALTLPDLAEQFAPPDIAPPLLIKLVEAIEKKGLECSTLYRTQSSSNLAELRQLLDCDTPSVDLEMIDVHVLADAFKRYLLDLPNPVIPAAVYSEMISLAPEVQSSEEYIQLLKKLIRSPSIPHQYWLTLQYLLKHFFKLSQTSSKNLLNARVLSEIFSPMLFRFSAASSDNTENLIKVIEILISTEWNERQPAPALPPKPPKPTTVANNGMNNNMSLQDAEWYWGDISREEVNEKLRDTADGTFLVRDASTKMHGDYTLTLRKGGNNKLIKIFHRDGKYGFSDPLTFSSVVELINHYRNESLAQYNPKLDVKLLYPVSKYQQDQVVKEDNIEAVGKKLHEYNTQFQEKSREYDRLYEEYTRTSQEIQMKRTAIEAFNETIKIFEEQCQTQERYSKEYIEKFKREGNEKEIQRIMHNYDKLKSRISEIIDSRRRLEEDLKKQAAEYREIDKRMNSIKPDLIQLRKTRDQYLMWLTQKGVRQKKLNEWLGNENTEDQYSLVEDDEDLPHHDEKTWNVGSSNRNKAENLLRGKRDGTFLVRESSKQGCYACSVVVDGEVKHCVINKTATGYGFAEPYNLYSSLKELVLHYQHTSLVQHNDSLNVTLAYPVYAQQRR

Compound	PI3Ka IC50 (PI3Kα (p110α/p85α)) [nM]	IC50 [1] [nM]	IC50 (U87MG tumour cells) [nM]	IC50 (Akt-pS473 in U87MG cells) [nM]
CCN1CC(C)(C)Oc2nc(N3CC4CCC(C3)O4)nc(-c3ccc(NC(=O)Nc4ccc(OC5CCOC5)cc4)c(F)c3)c2C1=O (stereo not drawn) [Example 77, 1-{4-[6-Ethyl-8,8-dimethyl-2-(8-oxa-3-azabicyclo[3.2.1]oct-3-yl)-5-oxo-5,6,7,8-tetrahydro-9-oxa-1,3,6-triazabenzocyclohepten-4-yl]-2-fluorophenyl}-3-[4-(tetrahydrofuran-3-yloxy)phenyl]urea]	4490	56	53	16
CCN1CC(C)(C)Oc2nc(N3CCOC[C@@H]3C)nc(-c3ccc(NC(=O)Nc4cn(C)cn4)c(F)c3)c2C1=O [Example 182, 1-{4-[6-Ethyl-8,8-dimethyl-2-((S)-3-methylmorpholin-4-yl)-5-oxo-5,6,7,8-tetrahydro-9-oxa-1,3,6-triazabenzocyclohepten-4-yl]-2-fluorophenyl}-3-(1-methyl-1H-imidazol-4-yl)urea]	159	26	2930	407
C[C@H]1COCCN1c1ccc(NC(=O)Nc2ccc(-c3nc(N4C5CCC4COC5)nc4c3C(=O)N(C)CC(C)(C)O4)cc2F)cn1 [Example 74, 1-{2-Fluoro-4-[6,8,8-trimethyl-2-(3-oxa-8-azabicyclo[3.2.1]oct-8-yl)-5-oxo-5,6,7,8-tetrahydro-9-oxa-1,3,6-triazabenzocyclohepten-4-yl]phenyl}-3-[6-((S)-3-methylmorpholin-4-yl)pyridin-3-yl]urea]	>10000	64	126	31
CCNC(=O)Nc1ccc(-c2nc(N3CC4CCC(C3)O4)nc3c2C(=O)N(CCOC)CC(C)(C)O3)cc1F [Example 211, 1-Ethyl-3-{2-fluoro-4-[6-(2-methoxyethyl)-8,8-dimethyl-2-(8-oxa-3-azabicyclo[3.2.1]oct-3-yl)-5-oxo-5,6,7,8-tetrahydro-9-oxa-1,3,6-triazabenzocyclohepten-4-yl]phenyl}urea]	>10000	87	894	270
CCN1CC(C)(C)Oc2nc(N3CCOC[C@@H]3C)nc(-c3ccc(NC(=O)Nc4ccc(C(=O)N(C)CCN(C)C)cc4)cc3)c2C1=O [Example 215, N-(2-Dimethylamino-ethyl)-4-(3-{4-[6-ethyl-8,8-dimethyl-2-((S)-3-methylmorpholin-4-yl)-5-oxo-5,6,7,8-tetrahydro-9-oxa-1,3,6-triazabenzocyclohepten-4-yl]phenyl}ureido)-N-methylbenzamide]	37	48	32	33
COc1ccc(NC(=O)Nc2ccc(-c3nc(N4CC5CCC(C4)O5)nc4c3C(=O)N(C)CC(C)(C)O4)cc2)nc1 [Example 54, 1-(5-Methoxypyridin-2-yl)-3-{4-[6,8,8-trimethyl-2-(8-oxa-3-azabicyclo[3.2.1]oct-3-yl)-5-oxo-5,6,7,8-tetrahydro-9-oxa-1,3,6-triazabenzocyclohepten-4-yl]phenyl}urea]	3000	32	161	41
CCN1CC(C)(C)Oc2nc(N3CCOC[C@@H]3C)nc(-c3ccc(NC(=O)Nc4ccncc4)cc3F)c2C1=O [Example 12, 1-{4-[6-ethyl-8,8-dimethyl-2-((S)-3-methylmorpholin-4-yl)-5-oxo-5,6,7,8-tetrahydro-9-oxa-1,3,6-triazabenzocyclohepten-4-yl]-3-fluorophenyl}-3-pyridin-4-ylurea]	640	17	121	43
CCN1CC(C)(C)Oc2nc(N3CC4CCC(C3)O4)nc(-c3ccc(NC(=O)Nc4ccc(N5CCN(C(=O)OC)CC5)nc4)c(F)c3)c2C1=O [Example 81, 4-[5-(3-{4-[6-Ethyl-8,8-dimethyl-2-(8-oxa-3-azabicyclo[3.2.1]oct-3-yl)-5-oxo-5,6,7,8-tetrahydro-9-oxa-1,3,6-triazabenzocyclohepten-4-yl]-2-fluorophenyl}ureido)pyridin-2-yl]piperazine-1-carboxylic acid methyl ester]	2100	124	108	17
CC1(C)CN(C2CCOCC2)C(=O)c2c(nc(N3CC4CCC(C3)O4)nc2-c2ccc(NC(=O)Nc3ccon3)cc2)O1 [Example 157, 1-{4-[8,8-Dimethyl-2-(8-oxa-3-azabicyclo[3.2.1]oct-3-yl)-5-oxo-6-(tetrahydropyran-4-yl)-5,6,7,8-tetrahydro-9-oxa-1,3,6-triazabenzocyclohepten-4-yl]phenyl}-3-isoxazol-3-ylurea]	>10000	27	260	67
CCN1CC(C)(C)Oc2nc(N3C4CCC3COC4)nc(-c3ccc(NC(=O)NC4CC4)c(F)c3)c2C1=O [Example 254, 1-Cyclopropyl-3-{4-[6-ethyl-8,8-dimethyl-2-(3-oxa-8-azabicyclo[3.2.1]oct-8-yl)-5-oxo-5,6,7,8-tetrahydro-9-oxa-1,3,6-triazabenzocyclohepten-4-yl]-2-fluorophenyl}urea]	>10000	68	240	68
CCN1CC(C)(C)Oc2nc(N3CC4CCC(C3)O4)nc(-c3ccc(NC(=O)Nc4ccnc(C)c4)c(F)c3)c2C1=O [Example 56, 1-{4-[6-Ethyl-8,8-dimethyl-2-(8-oxa-3-azabicyclo[3.2.1]oct-3-yl)-5-oxo-5,6,7,8-tetrahydro-9-oxa-1,3,6-triazabenzocyclohepten-4-yl]-2-fluorophenyl}-3-(2-methylpyridin-4-yl)urea]	3230	41	57	26
CNC(=O)Nc1ccc(-c2nc(N3CC4CCC(C3)O4)nc3c2C(=O)N(C)CC(C)(C)O3)cc1F [Example 45, 1-{2-Fluoro-4-[6,8,8-trimethyl-2-(8-oxa-3-azabicyclo[3.2.1]oct-3-yl)-5-oxo-5,6,7,8-tetrahydro-9-oxa-1,3,6-triazabenzocyclohepten-4-yl]phenyl}-3-methylurea]	4000	24	85	32
CCN1CC(C)(C)Oc2nc(N3CCOC[C@@H]3C)nc(-c3ccc(NC(=O)Nc4ccc(OC)cn4)cc3)c2C1=O [Example 173, 1-{4-[6-Ethyl-8,8-dimethyl-2-((S)-3-methylmorpholin-4-yl)-5-oxo-5,6,7,8-tetrahydro-9-oxa-1,3,6-triazabenzocyclohepten-4-yl]phenyl}-3-(5-methoxypyridin-2-yl)urea]	1602	12	242	42
CCN1CC(C)(C)Oc2nc(N3CCOC[C@@H]3C)nc(-c3ccc(NC(=O)NC4CC4)c(F)c3)c2C1=O [Example 150, 1-Cyclopropyl-3-{4-[6-ethyl-8,8-dimethyl-2-((S)-3-methylmorpholin-4-yl)-5-oxo-5,6,7,8-tetrahydro-9-oxa-1,3,6-triazabenzocyclohepten-4-yl]-2-fluorophenyl}urea]	5800	40	201	73
CCNC(=O)Nc1ccc(-c2nc(N3CCOC[C@@H]3CC)nc3c2C(=O)N(CC)CC(C)(C)O3)cc1F [Example 151, 1-Ethyl-3-{4-[6-ethyl-2-((S)-3-ethylmorpholin-4-yl)-8,8-dimethyl-5-oxo-5,6,7,8-tetrahydro-9-oxa-1,3,6-triazabenzocyclohepten-4-yl]-2-fluorophenyl}urea]	>10000	116	531	82
CCN1CC(C)(C)Oc2nc(N3CC4CCC(C3)O4)nc(-c3ccc(NC(=O)Nc4ccon4)c(F)c3)c2C1=O [Example 135, 1-{4-[6-Ethyl-8,8-dimethyl-2-(8-oxa-3-azabicyclo[3.2.1]oct-3-yl)-5-oxo-5,6,7,8-tetrahydro-9-oxa-1,3,6-triazabenzocyclohepten-4-yl]-2-fluorophenyl}-3-isoxazol-3-ylurea]	6525	11	112	26
CCNC(=O)Nc1ccc(-c2nc(N3CC4CCC(C3)O4)nc3c2C(=O)N(C[C@@H]2CCCN2)CC(C)(C)O3)cc1F [Example 4, 1-{4-[8,8-Dimethyl-2-(8-oxa-3-azabicyclo[3.2.1]oct-3-yl)-5-oxo-6-(S)-1-pyrrolidin-2-ylmethyl-5,6,7,8-tetrahydro-9-oxa-1,3,6-triazabenzocyclohepten-4-yl]-2-fluorophenyl}-3-ethylurea]	>10000	721	> 10000	> 3000
CCN1CC(C)(C)Oc2nc(N3CC4CCC(C3)O4)nc(-c3ccc(NC(=O)Nc4ccc(OCCOC)cn4)cc3)c2C1=O [Example 40, 1-{4-[6-Ethyl-8,8-dimethyl-2-(8-oxa-3-azabicyclo[3.2.1]oct-3-yl)-5-oxo-5,6,7,8-tetrahydro-9-oxa-1,3,6-triazabenzocyclohepten-4-yl]phenyl}-3-[5-(2-methoxyethoxy)pyridin-2-yl]urea]	>10000	56	274	59
